Reference: the supplement of paper PMC11061612

Key:
Paclitaxel = compound: CC(=O)O[C@H]1C(=O)[C@@]2(C)[C@H]([C@H](OC(=O)c3ccccc3)[C@]3(O)C[C@H](OC(=O)[C@H](O)[C@@H](NC(=O)c4ccccc4)c4ccccc4)C(C)=C1C3(C)C)[C@]1(OC(C)=O)CO[C@@H]1C[C@@H]2O [Paclitaxel]; conditions: max 3 µM
How it was run: (§1)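 Following 24 hours at 37°C and 5% CO2, cancer cell lines in 1536-well plates with 7.5 μl DMEM/F12 or RPMI and 10% FBS were dosed for 72 hours, final DMSO typically being 0.2%. CellTiter-Glo 2.0 luminescence, scaled between blank-well and DMSO-well means, gave the viability readout. Dose responses were fitted to a two-parameter logistic curve with a non-linear mixed effects model, and the single-agent IC50 was derived from this fit.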

AZD5153 = compound: COc1nnc2ccc(N3CCC(c4ccc(OCCN5CCN(C)C(=O)[C@H]5C)cc4)CC3)nn12 [AZD5153]; conditions: max 1 µM
How it was run: as §1

AZD5991 = compound: Cc1c2c(nn1C)CSCc1cc(n(C)n1)CSc1cc(c3ccccc3c1)OCCCc1c(C(=O)O)n(C)c3c-2c(Cl)ccc13 [AZD5991]; conditions: max 1 µM
How it was run: as §1

Alisertib = compound: COc1cc(Nc2ncc3c(n2)-c2ccc(Cl)cc2C(c2c(F)cccc2OC)=NC3)ccc1C(=O)O [Alisertib]; conditions: max 10 µM
How it was run: as §1

Savolitinib = compound: C[C@@H](c1ccc2nccn2c1)n1nnc2ncc(-c3cnn(C)c3)nc21 [Savolitinib]; conditions: max 1 µM
How it was run: as §1

Doxorubicin = compound: COc1cccc2c1C(=O)c1c(O)c3c(c(O)c1C2=O)C[C@@](O)(C(=O)CO)C[C@@H]3O[C@H]1C[C@H](N)[C@H](O)[C@H](C)O1 [Doxorubicin]; conditions: max 1 µM
How it was run: as §1

SG3199 = compound: CC1=CN2[C@@H](C1)C=NC3=CC(=C(C=C3C2=O)OC)OCCCCCOC4=C(C=C5C(=C4)N=C[C@@H]6CC(=CN6C5=O)C)OC [SG3199]; conditions: max 0.001 µM
How it was run: as §1

Taselisib = compound: Cc1nc(-c2cn3c(n2)-c2ccc(-c4cnn(C(C)(C)C(N)=O)c4)cc2OCC3)n(C(C)C)n1 [Taselisib]; conditions: max 10 µM
How it was run: as §1

Crizotinib = compound: C[C@@H](Oc1cc(-c2cnn(C3CCNCC3)c2)cnc1N)c1c(Cl)ccc(F)c1Cl [Crizotinib]; conditions: max 10 µM
How it was run: as §1

AZD7648 = compound: Cc1cc2ncnn2cc1Nc1ncc2c(n1)n(C1CCOCC1)c(=O)n2C [AZD7648]; conditions: max 10 µM
How it was run: as §1

5-Fluorouracil = compound: O=c1[nH]cc(F)c(=O)[nH]1 [5-Fluorouracil]; conditions: max 20 µM
How it was run: as §1

Trametinib = compound: CC(=O)Nc1cccc(-n2c(=O)n(C3CC3)c(=O)c3c(Nc4ccc(I)cc4F)n(C)c(=O)c(C)c32)c1 [Trametinib]; conditions: max 1 µM
How it was run: as §1

Dasatinib = compound: CC1=C(C(=CC=C1)Cl)NC(=O)C2=CN=C(S2)NC3=CC(=NC(=N3)C)N4CCN(CC4)CCO [Dasatinib]; conditions: max 2 µM
How it was run: as §1

Lapatinib = compound: CS(=O)(=O)CCNCc1ccc(-c2ccc3ncnc(Nc4ccc(OCc5cccc(F)c5)c(Cl)c4)c3c2)o1 [Lapatinib]; conditions: max 10 µM
How it was run: as §1

Olaparib = compound: O=C(c1cc(Cc2n[nH]c(=O)c3ccccc23)ccc1F)N1CCN(C(=O)C2CC2)CC1 [Olaparib]; conditions: max 10 µM
How it was run: as §1

AZD0156 = compound: CN(C)CCCOc1ccc(-c2ccc3ncc4c(c3c2)n(C2CCOCC2)c(=O)n4C)cn1 [AZD0156]; conditions: max 3 µM
How it was run: as §1

Palbociclib = compound: CC(=O)c1c(C)c2cnc(Nc3ccc(N4CCNCC4)cn3)nc2n(C2CCCC2)c1=O [Palbociclib]; conditions: max 10 µM
How it was run: as §1

AZD2811 = compound: CCN(CCO)CCCOc1ccc2c(Nc3cc(CC(=O)Nc4cccc(F)c4)[nH]n3)ncnc2c1 [AZD2811]; conditions: max 1 µM
How it was run: as §1

[1] = compound: O=C(Nc1ccc2[nH]nc(-c3ccncc3)c2c1)[C@@H]1CCN(CC(=O)N2CCN(c3ccc(-c4ncccn4)cc3)CC2)C1; conditions: max 5 µM
How it was run: as §1

Gefitinib = compound: COc1cc2ncnc(Nc3ccc(F)c(Cl)c3)c2cc1OCCCN1CCOCC1 [Gefitinib]; conditions: max 10 µM
How it was run: as §1

Prexasertib = compound: COc1cccc(OCCCN)c1-c1cc(Nc2cnc(C#N)cn2)n[nH]1 [Prexasertib]; conditions: max 1 µM
How it was run: as §1

SN-38 = compound: CCc1c2c(nc3ccc(O)cc13)-c1cc3c(c(=O)n1C2)COC(=O)[C@]3(O)CC [SN-38]; conditions: max 0.3 µM
How it was run: as §1

Selumetinib = compound: Cn1cnc2c(F)c(Nc3ccc(Br)cc3Cl)c(C(=O)NOCCO)cc21 [Selumetinib]; conditions: max 10 µM
How it was run: as §1

SRA737 = compound: N#Cc1cnc(Nc2cc(NC[C@H]3CNCCO3)c(C(F)(F)F)cn2)cn1 [SRA737]; conditions: max 10 µM
How it was run: as §1

AZD8186 = compound: C[C@@H](Nc1cc(F)cc(F)c1)c1cc(C(=O)N(C)C)cc2c(=O)cc(N3CCOCC3)oc12 [AZD8186]; conditions: max 10 µM
How it was run: as §1

MK-2206 = compound: NC1(c2ccc(-c3nc4ccn5c(=O)[nH]nc5c4cc3-c3ccccc3)cc2)CCC1 [MK-2206]; conditions: max 10 µM
How it was run: as §1

AZD1390 = compound: CC(C)n1c(=O)n(C)c2cnc3cc(F)c(-c4ccc(OCCCN5CCCCC5)nc4)cc3c21 [AZD1390]; conditions: max 0.3 µM
How it was run: as §1

AZD1775 = compound: C=CCn1c(=O)c2cnc(Nc3ccc(N4CCN(C)CC4)cc3)nc2n1-c1cccc(C(C)(C)O)n1 [AZD1775]; conditions: max 3 µM
How it was run: as §1

Etoposide = compound: COc1cc([C@@H]2c3cc4c(cc3[C@@H](O[C@@H]3O[C@@H]5CO[C@@H](C)O[C@H]5[C@H](O)[C@H]3O)[C@H]3COC(=O)[C@H]23)OCO4)cc(OC)c1O [Etoposide]; conditions: max 10 µM
How it was run: as §1

AZD6738 = compound: C[C@@H]1COCCN1C2=NC(=NC(=C2)C3(CC3)[S@](=N)(=O)C)C4=C5C=CNC5=NC=C4 [AZD6738]; conditions: max 10 µM
How it was run: as §1

Gemcitabine = compound: Nc1ccn([C@@H]2O[C@H](CO)[C@@H](O)C2(F)F)c(=O)n1 [Gemcitabine]; conditions: max 0.3 µM
How it was run: as §1

Venetoclax = compound: CC1(C)CCC(CN2CCN(c3ccc(C(=O)NS(=O)(=O)c4ccc(NCC5CCOCC5)c([N+](=O)[O-])c4)c(Oc4cnc5[nH]ccc5c4)c3)CC2)=C(c2ccc(Cl)cc2)C1 [Venetoclax]; conditions: max 1 µM
How it was run: as §1

Carboplatin = compound: C1CC(C1)(C(=O)[O-])C(=O)[O-].N.N.[Pt+2] [Carboplatin]; conditions: max 10 µM
How it was run: as §1

AZD5363 = compound: C1CN(CCC1(C(=O)N[C@@H](CCO)C2=CC=C(C=C2)Cl)N)C3=NC=NC4=C3C=CN4 [AZD5363]; conditions: max 10 µM
How it was run: as §1

AZD4320 = compound: CN(CC[C@H](CSC1=CC=CC=C1)NC2=C(C=C(C=C2)S(=O)(=O)NC(=O)C3=CC=C(C=C3)N4CCC(CC4)[C@H](C5=CC=CC=C5C6=CC=C(C=C6)Cl)O)S(=O)(=O)C(F)(F)F)CCO [AZD4320]; conditions: max 1 µM
How it was run: as §1

Cell Line: RPMI-8402 (T-Lymphoblastic Leukemia)
- IC50, cell viability 72 h (Paclitaxel): 6.86 nM
- IC50, cell viability 72 h (AZD5153): 63.1 nM
- IC50, cell viability 72 h (AZD5991): 504 nM
- IC50, cell viability 72 h (Alisertib): 214 nM
- IC50, cell viability 72 h (Savolitinib): > 1000 nM
- IC50, cell viability 72 h (Doxorubicin): 68.1 nM
- IC50, cell viability 72 h (SG3199): > 1 nM
- IC50, cell viability 72 h (Taselisib): 1030 nM
- IC50, cell viability 72 h (Crizotinib): 1630 nM
- IC50, cell viability 72 h (AZD7648): > 10000 nM
- IC50, cell viability 72 h (5-Fluorouracil): 9930 nM
- IC50, cell viability 72 h (Trametinib): > 1000 nM
- IC50, cell viability 72 h (Dasatinib): > 2000 nM
- IC50, cell viability 72 h (Lapatinib): 4400 nM
- IC50, cell viability 72 h (Olaparib): > 10000 nM
- IC50, cell viability 72 h (AZD0156): > 3000 nM
- IC50, cell viability 72 h (Palbociclib): 300 nM
- IC50, cell viability 72 h (AZD2811): 33.3 nM
- IC50, cell viability 72 h [1]: 4090 nM
- IC50, cell viability 72 h (Gefitinib): 9050 nM
- IC50, cell viability 72 h (Prexasertib): 5.84 nM
- IC50, cell viability 72 h (SN-38): 2.43 nM
- IC50, cell viability 72 h (Selumetinib): > 10000 nM
- IC50, cell viability 72 h (SRA737): 1320 nM
- IC50, cell viability 72 h (AZD8186): 5450 nM
- IC50, cell viability 72 h (MK-2206): 1150 nM
- IC50, cell viability 72 h (AZD1390): > 300 nM
- IC50, cell viability 72 h (AZD1775): 183 nM
- IC50, cell viability 72 h (Etoposide): 158 nM
- IC50, cell viability 72 h (AZD6738): 1300 nM
- IC50, cell viability 72 h (Gemcitabine): 23.5 nM
- IC50, cell viability 72 h (Venetoclax): > 1000 nM
- IC50, cell viability 72 h (Carboplatin): > 10000 nM
- IC50, cell viability 72 h (AZD5363): 2500 nM
- IC50, cell viability 72 h (AZD4320): 247 nM
